system: acid reflux; experiment: Example 13 case study, acid reflux; assay type: in vivo, human; settings: patient history
Description: A person had suffered from acid reflux for two years. The reflux was severe enough to wake them once or twice every night, and they slept in an inclined bed. […] The patient drank a small glass of water with Alka Vita each night.

| SMILES | relief of acid reflux by drugs tried before |
| --- | --- |
| COc1ccc2[nH]c([S+]([O-])Cc3ncc(C)c(OC)c3C)nc2c1 (stereo not shown) [Prilosec] | no relief |
| COc1cc(N)c(Cl)cc1C(=O)NC1CCN(CCCOc2ccc(F)cc2)CC1OC (stereo not shown) [Propulsid] | no relief |
| COc1ccc2[nH]c([S@@+]([O-])Cc3ncc(C)c(OC)c3C)nc2c1 [Nexium] | no relief |
| NC(N)=Nc1nc(CSCCC(N)=NS(N)(=O)=O)cs1 [Pepcid AC] | no relief |

From patent US20060275505A1, “Method and composition for increasing the alkalinity of the body” (priority 2005, published 2006)
